Data published in patent publication US6525001B1, “Substituted pyrimidine and pyridine herbicides” (Mid-American Commercialization Corporation, priority 1997, dated 2003).

Key:
Assay type in all cases: in vivo
[1] = tested on: wheat (Triticum aestivum); assay: Test B pre-/postemergence; design: key: 0 is no effect; 10 is complete control
Method in brief: (§1)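 Response scores run from 0, meaning no effect, to 10, meaning complete control, assigned by eye relative to controls twelve to sixteen days after spraying. Treatment was both preemergence on planted seed and postemergence on plants at the 1- to 4-leaf stage.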

[2] = tested on: sugar beet (Beta vulgaris); assay: Test B pre-/postemergence; design: key: 0 is no effect; 10 is complete control
Method in brief: as §1

[3] = tested on: pigweed (Amaranthus retroflexus); assay: Test B pre-/postemergence; design: key: 0 is no effect; 10 is complete control
Method in brief: as §1

[4] = tested on: giant foxtail (Setaria faberii); assay: Test B pre-/postemergence; design: key: 0 is no effect; 10 is complete control
Method in brief: as §1

[5] = tested on: velvetleaf (Abutilon theophrasti); assay: Test B pre-/postemergence; design: key: 0 is no effect; 10 is complete control
Method in brief: as §1

corn (Zea mays) = assay: Test B pre-/postemergence; design: key: 0 is no effect; 10 is complete control; conditions: for Corn plant response rating: Preemergence
Method in brief: as §1

rape (Brassica napus) = assay: Test B pre-/postemergence; design: key: 0 is no effect; 10 is complete control
Method in brief: as §1

[6] = tested on: broadleaf signalgrass (Brachiaria decumbens); assay: Test B pre-/postemergence; design: key: 0 is no effect; 10 is complete control; conditions: for B. signalgrass plant response rating: Preemergence
Method in brief: as §1

[7] = tested on: bedstraw (Galium aparine); assay: Test B pre-/postemergence; design: key: 0 is no effect; 10 is complete control; conditions: for Bedstraw plant response rating: Preemergence
Method in brief: as §1

[8] = tested on: momingglory (Ipomoea hederacea); assay: Test B pre-/postemergence; design: key: 0 is no effect; 10 is complete control
Method in brief: as §1

[9] = tested on: cocklebur (Xanthium strumarium); assay: Test B pre-/postemergence; design: key: 0 is no effect; 10 is complete control; conditions: for Cocklebur plant response rating: Preemergence
Method in brief: as §1

[10] = tested on: duck salad (Heteranthera limosa); assay: Test B flood test
Method in brief: (§2)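 Each value is a visual injury score relative to controls, with 10 meaning complete control and 0 no effect. Evaluation took place twelve to sixteen days after the 2-leaf-stage plants were treated and kept in the greenhouse.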

[11] = tested on: smallflower flatsedge (Cyperus difformis); assay: Test B flood test
Method in brief: as §2

[12] = tested on: bamyardgrass (Echinochloa crus-galli); assay: Test B flood test
Method in brief: as §2

rice (Oryza sativa) = assay: Test B flood test
Method in brief: as §2

[13] = Rate 250 g/ha, Postemergence (so in the source)
[14] = Rate 62 g/ha, Postemergence (flood test)
[15] = Rate 125 g/ha, Postemergence, flood test
[16] = Rate 250 g/ha, Postemergence (flood test species)
[17] = Rate 125 g/ha, Postemergence section (flood test species)

Cc1cnc(-n2cnc(C(F)(F)F)n2)nc1Cc1cccc(C(F)(F)F)c1 [Compound 43]
Wheat plant response rating ([1]; Rate 62 g/ha, Postemergence): 3
Wheat plant response rating ([1]; Rate 62 g/ha, Preemergence): 2
Wheat plant response rating ([1]; Rate 125 g/ha, Postemergence): 4
Plant response rating, Wheat ([1]; Rate 125 g/ha, Preemergence): 2
Plant response rating, Wheat ([1]; Rate 250 g/ha, Postemergence): 5
Plant response rating, Wheat [1, 13]: 2
Plant response rating, Sugarbeets ([2]; Rate 62 g/ha, Postemergence): 10
Sugarbeets plant response rating ([2]; Rate 62 g/ha, Preemergence): 10
Sugarbeets plant response rating ([2]; Rate 125 g/ha, Postemergence): 10
Plant response rating, Sugarbeets ([2]; Rate 125 g/ha, Preemergence): 10
Plant response rating, Sugarbeets ([2]; Rate 250 g/ha, Postemergence): 10
Plant response rating, Sugarbeets [2, 13]: 10
Plant response rating, Redroot pigweed ([3]; Rate 62 g/ha, Postemergence): 10
Redroot pigweed plant response rating ([3]; Rate 62 g/ha, Preemergence): 10
Redroot pigweed plant response rating ([3]; Rate 125 g/ha, Postemergence): 10
Redroot pigweed plant response rating ([3]; Rate 125 g/ha, Preemergence): 10
Plant response rating, Redroot pigweed ([3]; Rate 250 g/ha, Postemergence): 10
Plant response rating, Redroot pigweed [3, 13]: 10
Plant response rating, Giant foxtail ([4]; Rate 62 g/ha, Postemergence): 8
Giant foxtail plant response rating ([4]; Rate 62 g/ha, Preemergence): 7
Giant foxtail plant response rating ([4]; Rate 125 g/ha, Postemergence): 9
Giant foxtail plant response rating ([4]; Rate 125 g/ha, Preemergence): 9
Plant response rating, Giant foxtail ([4]; Rate 250 g/ha, Postemergence): 9
Plant response rating, Giant foxtail [4, 13]: 9
Plant response rating, Velvetleaf ([5]; Rate 62 g/ha, Postemergence): 8
Velvetleaf plant response rating ([5]; Rate 62 g/ha, Preemergence): 10
Velvetleaf plant response rating ([5]; Rate 125 g/ha, Postemergence): 9
Plant response rating, Velvetleaf ([5]; Rate 125 g/ha, Preemergence): 10
Plant response rating, Velvetleaf ([5]; Rate 250 g/ha, Postemergence): 9
Plant response rating, Velvetleaf [5, 13]: 10
Plant response rating, Corn (corn (Zea mays); Rate 62 g/ha, Postemergence): 3
Corn plant response rating (corn (Zea mays); Rate 62 g/ha): 1
Plant response rating, Corn (corn (Zea mays); Rate 125 g/ha, Postemergence): 4
Corn plant response rating (corn (Zea mays); Rate 125 g/ha): 1
Plant response rating, Corn (corn (Zea mays); Rate 250 g/ha, Postemergence): 5
Plant response rating, Corn (corn (Zea mays); [13]): 1
Plant response rating, Rape (rape (Brassica napus); Rate 62 g/ha, Postemergence): 9
Rape plant response rating (rape (Brassica napus); Rate 62 g/ha, Preemergence): 8
Rape plant response rating (rape (Brassica napus); Rate 125 g/ha, Postemergence): 10
Rape plant response rating (rape (Brassica napus); Rate 125 g/ha, Preemergence): 10
Plant response rating, Rape (rape (Brassica napus); Rate 250 g/ha, Postemergence): 10
Plant response rating, Rape (rape (Brassica napus); [13]): 10
Plant response rating, B. signalgrass ([6]; Rate 62 g/ha, Postemergence): 4
B. signalgrass plant response rating ([6]; Rate 62 g/ha): 5
Plant response rating, B. signalgrass ([6]; Rate 125 g/ha, Postemergence): 4
B. signalgrass plant response rating ([6]; Rate 125 g/ha): 9
Plant response rating, B. signalgrass ([6]; Rate 250 g/ha, Postemergence): 6
Plant response rating, B. signalgrass ([6]; Rate 250 g/ha, Postemergence as printed in head r139 (second section for compounds 26-50)): 9
Plant response rating, Bedstraw ([7]; Rate 62 g/ha, Postemergence): 9
Bedstraw plant response rating ([7]; Rate 62 g/ha): 8
Plant response rating, Bedstraw ([7]; Rate 125 g/ha, Postemergence): 10
Bedstraw plant response rating ([7]; Rate 125 g/ha): 9
Plant response rating, Bedstraw ([7]; Rate 250 g/ha, Postemergence): 10
Plant response rating, Bedstraw [7, 13]: 10
Plant response rating, Morningglory ([8]; Rate 62 g/ha, Postemergence): 9
Morningglory plant response rating ([8]; Rate 62 g/ha, Preemergence): 9
Morningglory plant response rating ([8]; Rate 125 g/ha, Postemergence): 9
Morningglory plant response rating ([8]; Rate 125 g/ha, Preemergence): 10
Plant response rating, Morningglory ([8]; Rate 250 g/ha, Postemergence): 10
Plant response rating, Morningglory [8, 13]: 10
Cocklebur plant response rating ([9]; Rate 62 g/ha): 1
Plant response rating, Cocklebur ([9]; Rate 125 g/ha, Postemergence): 7
Cocklebur plant response rating ([9]; Rate 125 g/ha): 2
Plant response rating, Cocklebur ([9]; Rate 250 g/ha, Postemergence): 9
Plant response rating, Cocklebur [9, 13]: 2
Plant response rating, Ducksalad [10, 14]: 8
Plant response rating, Ducksalad [10, 15]: 9
Plant response rating, Ducksalad [10, 16]: 9
Plant response rating, S. Flatsedge [11, 14]: 9
S. Flatsedge plant response rating [11, 17]: 9
Plant response rating, S. Flatsedge [11, 16]: 9
Plant response rating, Barnyardgrass [12, 14]: 4
Plant response rating, Barnyardgrass [12, 15]: 4
Plant response rating, Barnyardgrass [12, 16]: 5
Plant response rating, Rice (rice (Oryza sativa); [14]): 4
Rice plant response rating (rice (Oryza sativa); [17]): 6
Plant response rating, Rice (rice (Oryza sativa); [16]): 7
